Assays:
ADR- Alpha 1B = ADR- Alpha 1B (Homo sapiens, UniProt P35368); assay: Radioligand binding ADR Alpha 1B; conditions: S2 Table; hot ligand [3H] Prazosin; read-out: Binding Affinity Ki
[1] = system: LPS-induced TNFα response; assay: In vivo LPS assay; set-up: species or system C57Bl/6J mice; conditions: 90 min post-LPS
Protocol: ; subcutaneous; […]; intraperitoneal; n = 4) or vehicle (5% DMSO/20%PEG400/water; intraperitoneal; n = 12) 15 min prior to LPS (50 ug/kg; intraperitoneal). A control group was injected with vehicle 15 minutes prior to saline (n = 18). Following injections, mice were single-housed. At 90 min post-LPS/saline, mice were deeply anesthetized with isoflurane and blood was collected from the right ventricle via cardiac puncture (23 g needle) into lithium heparin-containing vials (BD microtainer plasma tubes). Subsequently, brains were collected after perfusion with phosphate-buffered saline. Plasma was separated by centrifugation (11,000 rpm for 3 minutes) within 60 min of collection and stored at -80°C until analysis. The concentration of TNFα in the collected plasma was measured by ELISA (Invitrogen, KMC3012) according to the manufacturer’s instruction. The LPS-induced inflammatory response in the CNS was assessed by measuring mRNA expression for genes related to neuroimmune activation in brain tissue according to the previously reported method. Briefly, total RNA was extracted from hippocampus containing coronal sections using the RNeasy Lipid Tissue Mini Kit (Qiagen), and transcribed into cDNA (Superscript III, Invitrogen). PCR was performed in duplicate using TaqMan gene expression assays, TNFα (Mm00443258_m1), IL1b (Mm00434228_m1), IL6 (Mm00446190_m1), and glyceraldehyde-3-phosphate dehydrogenase (GAPDH; Mm99999915_g1). Fold changes of expression relative to control were determined after normalization to GAPDH. Relative quantification and fold change were calculated by the comparative CT method. Brain uptake of STD-101-D1 was determined in brain tissue. […]

5-HT 2B = 5-HT 2B (Homo sapiens, UniProt P41595); assay: Radioligand binding 5-HT 2B; conditions: S2 Table; hot ligand [3H]LSD; read-out: Binding Affinity Ki
5-HT 2B, sequence (P41595 whole entry, species assumed): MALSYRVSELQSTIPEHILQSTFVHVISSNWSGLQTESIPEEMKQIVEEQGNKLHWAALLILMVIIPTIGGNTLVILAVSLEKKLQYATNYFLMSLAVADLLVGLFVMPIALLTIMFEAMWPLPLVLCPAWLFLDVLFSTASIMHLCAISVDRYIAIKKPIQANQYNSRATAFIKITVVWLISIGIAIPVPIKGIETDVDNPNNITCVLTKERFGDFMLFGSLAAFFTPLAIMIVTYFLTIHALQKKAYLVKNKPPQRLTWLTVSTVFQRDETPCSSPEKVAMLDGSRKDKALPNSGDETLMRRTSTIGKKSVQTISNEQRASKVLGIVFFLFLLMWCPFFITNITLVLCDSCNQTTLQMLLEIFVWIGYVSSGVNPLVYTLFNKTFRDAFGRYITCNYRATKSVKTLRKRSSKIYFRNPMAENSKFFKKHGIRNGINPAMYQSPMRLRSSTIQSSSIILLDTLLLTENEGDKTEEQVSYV

[2] = system: LPS-induced TNFα production in primary microglia; assay: In vitro primary microglia TNFα assay; assay type: cell-based, Sprague Dawley rat; conditions: Rattus norvegicus, 10 μM compound, LPS 10 ng/ml, 4 hrs, ELISA, read-out: inhibition of LPS-induced TNFα production
Description: Mixed glial cells were obtained from the cerebral cortex of Sprague Dawley rat pups at postnatal days 1–3. Briefly, neonates were euthanized by decapitation and their brain tissues were collected for cortex isolation. The isolated cortex was then trypsinized, triturated, and placed into tissue culture flasks in DMEM supplemented with 10% fetal bovine serum and 1% Penicillin/Streptomycin. After 10 days in vitro, microglia were harvested by gentle shaking of the growth flask, plated in a 96 well plate at a density of 30,000 cells/well, and incubated at 37°C overnight.

[3] = Pharmacokinetic study 2, 20-min post-dose collection; assay type: in vivo, Sprague-Dawley rats; conditions: Sprague-Dawley, brain, rat, single administration
Description: (§1) Two cohorts of Sprague-Dawley rats were used in two independent studies. All animals were fasted overnight before the experiment with free access to water. In study 1, a total of 18 rats were used for a 4 hr time course pharmacokinetic (PK) study. Rats were anesthetized with 3% isoflurane and catheters were implanted into the jugular and/or portal veins for compound administration and/or blood sampling at 1 to 2 days prior to the experiments as previously described. […] Four hours post-dose, rats were deeply anesthetized with isoflurane and blood samples were collected by cardiac puncture. In study 2, a total of 18 rats were used for a 20 min post-dose collection study. […] At 20 min post-dose, rats were deeply anesthetized with isoflurane and blood samples were collected by cardiac puncture. Brains were collected after perfusion with phosphate buffered saline. All plasma samples were immediately separated after collection by centrifugation (11,000 rpm for 3 minutes) and stored at −80°C until analysis. […] Tulobuterol was used as the internal standard. The flow rate was set to 0.45 ml/min. Column temperature was 25°C. […] The injection volume was 20 μl. The mass spectrometer was operated in the positive mode with multiple-reaction monitoring (MRM). […] Mobile phase A consisted of 10 mM ammonium acetate and 0.1% formic acid in LCMS grade water. Mobile phase B consisted of 10 mM ammonium acetate and 0.1% formic acid in LCMS grade acetonitrile:water 90:10% (v/v). […] Five μl of the extracted samples were injected. […] Data acquisition and analysis were performed using the Analyst 1.6.1 software (AB SCIEX, CA).

[4] = Pharmacokinetic study 1, 4-hr time course; assay type: in vivo, Sprague-Dawley rats; conditions: rat; for AUCinf / Cmax: 10 mg/kg PO
Description: as §1

5-HT 1A = 5-HT 1A (Homo sapiens, UniProt P08908); assay: Radioligand binding 5-HT 1A; conditions: S2 Table; hot ligand [3H]8-OH-DPAT; read-out: Binding Affinity Ki
5-HT 1A, sequence (P08908 whole entry, species assumed): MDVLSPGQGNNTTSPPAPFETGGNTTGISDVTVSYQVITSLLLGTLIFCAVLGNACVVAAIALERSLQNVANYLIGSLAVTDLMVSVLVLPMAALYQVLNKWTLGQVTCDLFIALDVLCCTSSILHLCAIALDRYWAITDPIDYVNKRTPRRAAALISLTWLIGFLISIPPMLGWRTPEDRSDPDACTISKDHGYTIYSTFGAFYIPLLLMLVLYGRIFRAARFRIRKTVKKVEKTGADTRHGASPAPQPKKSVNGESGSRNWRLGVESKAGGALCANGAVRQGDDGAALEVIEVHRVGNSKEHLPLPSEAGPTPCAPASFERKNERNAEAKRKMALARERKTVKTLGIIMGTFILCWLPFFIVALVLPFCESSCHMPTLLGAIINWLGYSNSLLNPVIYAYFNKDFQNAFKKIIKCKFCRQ

ADR- Alpha 1B, sequence (P35368 whole entry): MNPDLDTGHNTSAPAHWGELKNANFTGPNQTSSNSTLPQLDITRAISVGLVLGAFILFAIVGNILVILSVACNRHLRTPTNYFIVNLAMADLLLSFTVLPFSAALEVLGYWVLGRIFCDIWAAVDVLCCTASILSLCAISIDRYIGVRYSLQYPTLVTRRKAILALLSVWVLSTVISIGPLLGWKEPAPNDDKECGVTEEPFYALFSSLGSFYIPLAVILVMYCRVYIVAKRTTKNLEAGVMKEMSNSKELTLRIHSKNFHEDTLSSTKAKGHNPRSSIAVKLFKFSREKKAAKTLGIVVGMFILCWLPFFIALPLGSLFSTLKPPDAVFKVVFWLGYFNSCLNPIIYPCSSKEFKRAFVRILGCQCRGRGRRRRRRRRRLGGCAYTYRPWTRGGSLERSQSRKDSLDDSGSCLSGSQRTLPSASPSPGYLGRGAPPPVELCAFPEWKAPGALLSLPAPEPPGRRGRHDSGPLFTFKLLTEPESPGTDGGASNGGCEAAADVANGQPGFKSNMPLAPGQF

COc1ccccc1OCCNC[C@H](O)COc1ccc(O)cc1.COc1ccccc1OCCNC[C@H](O)COc1ccc(O)cc1.O=C(O)/C=C/C(=O)O [STD-101-D1, (S)-4-(2-hydroxy-3-((2-(2-methoxyphenoxy)ethyl)amino)propoxy)phenol hemifumarate]
Ki (ADR- Alpha 1B): 267 nM
LPS-induced systemic (plasma) TNFα response ([1]; 3 mg/kg pre-treatment 15 min prior to LPS): markedly inhibited
CNS IL-1β (mRNA) after LPS ([1]; 3 mg/kg pre-treatment): trend for attenuation
CNS IL-6 (mRNA) after LPS ([1]; 3 mg/kg pre-treatment): no effect
LPS-induced inflammatory TNFα response in the brain (mRNA) ([1]; 3 mg/kg pre-treatment): attenuated
Ki (5-HT 2B): 25 nM
inhibition at 10 µM [2]: ~50%
concentration at 20 min ([3]; ip, 10 mg/kg intraperitoneally): 288 nM
concentration at 20 min ([3]; iv, 10 mg/kg intravenously): 2500 nM
time post-dose at which Cmax was achieved ([4]; 10 mg/kg IP, systemic plasma): 90 min
AUCinf ([4]; portal vein plasma): 362 ± 367 ng·h/mL
Cmax ([4]; portal vein plasma): 946 ± 867 ng/mL
AUCinf ([4]; systemic (jugular vein) plasma): 101 ± 29 ng·h/mL
Cmax ([4]; systemic (jugular vein) plasma): 116 ± 78 ng/mL
Ki (5-HT 1A): 11 nM

Source: PMC5529018, “Discovery of novel brain permeable and G protein-biased beta-1 adrenergic receptor partial agonists for the treatment of neurocognitive disorders” (PLoS ONE, 2017)
